Experimental data as given in PubChem BioAssay AID256 (DTP/NCI, 2004).
Inconclusive results and toxic doses are left out. How the source made its calls: active means survival T/C of 150% or more; inactive means T/C below 125% in these data.

Test system: CD2F1 mice, L1210 leukemia ip, survival T/C
Experiment: NCI In Vivo Anticancer Drug Screen. Data for tumor model L1210 Leukemia (intraperitoneal) in CD2F1 (CDF1) mice
Conditions: higher = longer survival
How it was run: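 Tumor-bearing mice (transplanted tumor) were split into treated and vehicle control groups, and the measured endpoint of each treated group was divided by that of its vehicle controls.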

[1] = endpoint: mean survival time, dose: 100.0 mg/kg/injection, schedule: Q04DX003 (ip), vehicle: saline with Tween-80
[2] = endpoint: mean survival time, dose: 200.0 mg/kg/injection, schedule: Q04DX003 (ip), vehicle: saline with Tween-80
[3] = endpoint: mean survival time, dose: 400.0 mg/kg/injection, schedule: Q04DX003 (ip), vehicle: saline with Tween-80
[4] = endpoint: mean survival time, dose: 100.0 mg/kg/injection, schedule: Q04DX003 (ip), vehicle: saline
[5] = endpoint: mean survival time, dose: 200.0 mg/kg/injection, schedule: Q04DX003 (ip), vehicle: saline
[6] = endpoint: mean survival time, dose: 400.0 mg/kg/injection, schedule: Q04DX003 (ip), vehicle: saline
[7] = endpoint: mean survival time, dose: 100.0 mg/kg/injection, schedule: Q01DX001 (ip), vehicle: saline with Tween-80
[8] = endpoint: mean survival time, dose: 100.0 mg/kg/injection, schedule: Q01DX009 (ip), vehicle: saline with Tween-80
[9] = endpoint: mean survival time, dose: 200.0 mg/kg/injection, schedule: Q01DX001 (ip), vehicle: saline with Tween-80
[10] = endpoint: mean survival time, dose: 200.0 mg/kg/injection, schedule: Q01DX009 (ip), vehicle: saline with Tween-80
[11] = endpoint: mean survival time, dose: 400.0 mg/kg/injection, schedule: Q01DX001 (ip), vehicle: saline with Tween-80
[12] = endpoint: mean survival time, dose: 100.0 mg/kg/injection, schedule: Q04DX002 (ip), vehicle: saline with Tween-80
[13] = endpoint: mean survival time, dose: 200.0 mg/kg/injection, schedule: Q04DX002 (ip), vehicle: saline with Tween-80
[14] = endpoint: mean survival time, dose: 400.0 mg/kg/injection, schedule: Q04DX002 (ip), vehicle: saline with Tween-80
[15] = endpoint: mean survival time, dose: 25.0 mg/kg/injection, schedule: Q01DX009 (ip), vehicle: Klucel (hydroxypropylcellulose) (HPC)
[16] = endpoint: mean survival time, dose: 50.0 mg/kg/injection, schedule: Q01DX009 (ip), vehicle: Klucel (hydroxypropylcellulose) (HPC)
[17] = endpoint: mean survival time, dose: 100.0 mg/kg/injection, schedule: Q01DX009 (ip), vehicle: Klucel (hydroxypropylcellulose) (HPC)
[18] = endpoint: mean survival time, dose: 200.0 mg/kg/injection, schedule: Q01DX009 (ip), vehicle: Klucel (hydroxypropylcellulose) (HPC)
[19] = endpoint: mean survival time, dose: 400.0 mg/kg/injection, schedule: Q01DX009 (ip), vehicle: Klucel (hydroxypropylcellulose) (HPC)

Measured: T/C

CN(C)C(=S)S
inactive: endpoint: mean survival time, dose: 50.0 mg/kg/injection, schedule: Q01DX001 (ip), vehicle: carboxymethylcellulose (CMC) 93 % of control | endpoint: mean survival time, dose: 100.0 mg/kg/injection, schedule: Q01DX001 (ip), vehicle: carboxymethylcellulose (CMC) 89 % of control | [1] 94 % of control | endpoint: mean survival time, dose: 200.0 mg/kg/injection, schedule: Q01DX001 (ip), vehicle: carboxymethylcellulose (CMC) 104 % of control | [2] 105 % of control | endpoint: mean survival time, dose: 400.0 mg/kg/injection, schedule: Q01DX001 (ip), vehicle: carboxymethylcellulose (CMC) 106 % of control | [3] 100 % of control

CC(C)=CCO
inactive: [4] 105 % of control | [5] 94 % of control | [6] 94 % of control

Cc1cn(C2CC3O[P@@](=S)(Nc4ccccc4)OCC3O2)c(=O)[nH]c1=O (some centres undefined)
inactive: endpoint: median survival time, dose: 11.5 mg/kg/injection, schedule: Q01DX005 (ip), vehicle: saline with Tween-80 108 % of control | endpoint: median survival time, dose: 23.0 mg/kg/injection, schedule: Q01DX005 (ip), vehicle: saline with Tween-80 103 % of control | endpoint: median survival time, dose: 46.0 mg/kg/injection, schedule: Q01DX005 (ip), vehicle: saline with Tween-80 98 % of control

C=CC1CN2CCC1CC2C(O)c1ccnc2ccc(OC)cc12 (centres undefined)
inactive: endpoint: mean survival time, dose: 18.75 mg/kg/injection, schedule: Q01DX009 (ip), vehicle: saline with Tween-80 105 % of control | endpoint: mean survival time, dose: 37.5 mg/kg/injection, schedule: Q01DX009 (ip), vehicle: saline with Tween-80 101 % of control | endpoint: mean survival time, dose: 75.0 mg/kg/injection, schedule: Q01DX009 (ip), vehicle: saline with Tween-80 103 % of control

O=C(O)C1=CCCc2ccc(F)cc21
inactive: endpoint: median survival time, dose: 50.0 mg/kg/injection, schedule: Q04DX002 (ip), vehicle: saline with Tween-80 100 % of control | endpoint: median survival time, dose: 100.0 mg/kg/injection, schedule: Q04DX002 (ip), vehicle: saline with Tween-80 100 % of control | endpoint: median survival time, dose: 200.0 mg/kg/injection, schedule: Q04DX002 (ip), vehicle: saline with Tween-80 88 % of control | endpoint: median survival time, dose: 400.0 mg/kg/injection, schedule: Q04DX002 (ip), vehicle: saline with Tween-80 111 % of control

CN(C)S(=O)(=O)C(C)(C)c1ccccc1
inactive: [7] 100 % of control | [8] 96 % of control | [1] 94 % of control | [9] 101 % of control | [10] 96 % of control | [2] 94 % of control | [11] 100 % of control | [3] 96 % of control

Cc1ccc2nc(-c3ccc4nc(-c5ccc(N)cc5)sc4c3)sc2c1S(=O)(=O)O
inactive: [4] 109 % of control | [5] 107 % of control | [6] 112 % of control

Cc1ccc(Cl)cc1[NH-].Cc1ccc(Cl)cc1[NH-].[Cl][Pt+2][Cl]
inactive: endpoint: mean survival time, dose: 25.0 mg/kg/injection, schedule: Q04DX003 (ip), vehicle: saline with Tween-80 100 % of control | endpoint: mean survival time, dose: 50.0 mg/kg/injection, schedule: Q04DX003 (ip), vehicle: saline with Tween-80 95 % of control | [1] 97 % of control | [2] 101 % of control

CC1CC(C)(C)NC1=O (centres undefined)
inactive: endpoint: mean survival time, dose: 6.25 mg/kg/injection, schedule: Q04DX003 (ip), vehicle: saline 103 % of control | endpoint: mean survival time, dose: 12.5 mg/kg/injection, schedule: Q04DX003 (ip), vehicle: saline 104 % of control | endpoint: mean survival time, dose: 25.0 mg/kg/injection, schedule: Q04DX003 (ip), vehicle: saline 95 % of control

Cc1n[nH]n(Cc2ccccc2)c1=O
inactive: endpoint: mean survival time, dose: 25.0 mg/kg/injection, schedule: Q01DX005 (ip), vehicle: saline with Tween-80 97 % of control | endpoint: mean survival time, dose: 50.0 mg/kg/injection, schedule: Q01DX005 (ip), vehicle: saline with Tween-80 99 % of control | endpoint: mean survival time, dose: 100.0 mg/kg/injection, schedule: Q01DX005 (ip), vehicle: saline with Tween-80 97 % of control | endpoint: mean survival time, dose: 200.0 mg/kg/injection, schedule: Q01DX005 (ip), vehicle: saline with Tween-80 99 % of control | endpoint: mean survival time, dose: 400.0 mg/kg/injection, schedule: Q01DX005 (ip), vehicle: saline with Tween-80 97 % of control

CCOC(=O)C(C(C)=O)c1cc(NS(=O)(=O)c2ccccc2)ccc1O (centres undefined)
inactive: [1] 114 % of control | [2] 103 % of control | [3] 105 % of control

O=C(COc1cc(Cl)c(Cl)cc1Cl)OCCOc1cc(Cl)c(Cl)cc1Cl
inactive: endpoint: mean survival time, dose: 15.0 mg/kg/injection, schedule: Q04DX003 (ip), vehicle: saline 93 % of control | endpoint: mean survival time, dose: 30.0 mg/kg/injection, schedule: Q04DX003 (ip), vehicle: saline 89 % of control | endpoint: mean survival time, dose: 200.0 mg/kg/injection, schedule: Q01DX001 (ip), vehicle: saline 86 % of control

CCCCCCCCCCCOc1ccccc1Cl
inactive: [12] 90 % of control | [13] 93 % of control | [14] 93 % of control

CNNC1CCC2C3CCc4cc(O)ccc4C3CCC12C (centres undefined)
inactive: endpoint: mean survival time, dose: 12.5 mg/kg/injection, schedule: Q01DX009 (ip), vehicle: Klucel (hydroxypropylcellulose) (HPC) 91 % of control | [15] 94 % of control | [16] 91 % of control

COC(=O)c1nccnc1N
inactive: endpoint: mean survival time, dose: 100.0 mg/kg/injection, schedule: Q04DX002 (ip), vehicle: saline 96 % of control | endpoint: mean survival time, dose: 200.0 mg/kg/injection, schedule: Q04DX002 (ip), vehicle: saline 105 % of control | endpoint: mean survival time, dose: 400.0 mg/kg/injection, schedule: Q04DX002 (ip), vehicle: saline 113 % of control

Cn1c(N)nc2nc[nH]c2c1=S
inactive: endpoint: mean survival time, dose: 16.0 mg/kg/injection, schedule: Q01DX008 (iv), vehicle: saline 100 % of control | endpoint: mean survival time, dose: 32.0 mg/kg/injection, schedule: Q01DX008 (iv), vehicle: saline 98 % of control | endpoint: mean survival time, dose: 64.0 mg/kg/injection, schedule: Q01DX008 (iv), vehicle: saline 105 % of control

CCC(c1ccccc1)C(CC)c1ccc(N(C)C)cc1 (centres undefined)
inactive: [16] 95 % of control | [17] 94 % of control | [18] 91 % of control | [19] 97 % of control

CCCCC1CCC(NC(=O)Nc2ccccc2)CC1 (centres undefined)
inactive: [1] 113 % of control | [2] 109 % of control | [3] 105 % of control

O=C1C=CC(=O)N1Cc1ccco1
inactive: [4] 102 % of control | [5] 95 % of control | [6] 90 % of control

OC1CCCC2OC12 (centres undefined)
inactive: [4] 93 % of control | [5] 96 % of control | [6] 93 % of control

CCOC(=O)c1c(-c2ccccc2)[nH]c2ccccc2c1=O
inactive: [1] 96 % of control | [2] 98 % of control | [3] 95 % of control

O=[N+]([O-])c1ccc(N/N=C2\C(c3ccccc3)=C(c3ccccc3)CC2Cl)c([N+](=O)[O-])c1 (centres undefined)
inactive: [7] 90 % of control | [9] 101 % of control | [11] 96 % of control

Cn1ncc(C#N)c1N
inactive: endpoint: mean survival time, dose: 100.0 mg/kg/injection, schedule: Q01DX001 (ip), vehicle: Klucel (hydroxypropylcellulose) (HPC) 117 % of control | endpoint: mean survival time, dose: 200.0 mg/kg/injection, schedule: Q01DX001 (ip), vehicle: Klucel (hydroxypropylcellulose) (HPC) 102 % of control | endpoint: mean survival time, dose: 400.0 mg/kg/injection, schedule: Q01DX001 (ip), vehicle: Klucel (hydroxypropylcellulose) (HPC) 102 % of control

COC(=O)c1ccccc1I
inactive: [12] 107 % of control | [13] 96 % of control | [14] 107 % of control

CC1=[S+]c2ccccc2C2Nc3ccccc3C12 (centres undefined)
inactive: endpoint: mean survival time, dose: 100.0 mg/kg/injection, schedule: Q04DX003 (ip), vehicle: acetone 103 % of control | endpoint: mean survival time, dose: 200.0 mg/kg/injection, schedule: Q04DX003 (ip), vehicle: acetone 105 % of control

CC1(C)NC(=O)N(Br)C1=O
inactive: [8] 88 % of control | [1] 103 % of control | [10] 89 % of control | [2] 96 % of control | [3] 103 % of control

COC(=O)c1cc(I)ccc1O
inactive: [8] 107 % of control | [1] 103 % of control | [10] 109 % of control | [2] 100 % of control | endpoint: mean survival time, dose: 400.0 mg/kg/injection, schedule: Q01DX009 (ip), vehicle: saline with Tween-80 103 % of control | [3] 100 % of control

CC(/C=N\O)=N\O
inactive: [7] 97 % of control | [9] 103 % of control

CC1(C)CC(C)(OC(=O)c2ccccc2)N=N1 (centres undefined)
inactive: [15] 97 % of control | [16] 94 % of control | [17] 101 % of control | [18] 100 % of control | [19] 101 % of control

Nc1nc(N)c2ncn(Cc3ccccc3)c2n1
inactive: [1] 98 % of control | [2] 93 % of control | [3] 100 % of control
